Earlier results on 1 compound are cited in patent US20090180950A1, “Polychromatic, diversely-sized particles for angiography” (The Trustees of Columbia University in the City of New York, priority 2006, published 2009).

The subject of the data set is plasma protein. The note with it: fluorescein.

For `O=C1OC2(c3ccc(O)cc3Oc3cc(O)ccc32)c2ccccc21` [fluorescein, Sodium fluorescein], for the setting “fraction bound”, the “bound to plasma protein” value is listed as 70-80%. The “unbound (free) fraction” value (fraction not bound to plasma protein) is listed as 20-30%.
